Measured values taken from patent US20100160454A1, “ANTIMICROBIAL AGENTS, COMPOSITIONS AND PRODUCTS CONTAINING THE SAME, AND METHODS OF USING THE COMPOSITIONS AND PRODUCTS” (Eastman Chemical Company, priority 2008, published 2010).

Assays:
Test in all cases: Microbiological challenge testing in BPW broth, graded subculture counts
Type in all cases: cell-based
[1] = tested on: Aspergillus niger Wild type; conditions: A. niger
Experimental: The microorganisms in the table below were used in challenge tests. They were either ATCC (American Type Culture Collection) or “wild type” as indicated. Wild type organisms were problematic organisms previously isolated from chemical products.
All of the microorganisms were grown in Tryptose Soy Broth (TSB), DIFCO™ available from Becton, Dickinson and Company, containing 1% dextrose. Candida albicans and Aspergillus niger, were incubated at 22° C.+/−2° C. for at least 96 hours. All bacteria were incubated at 35° C.+/−2° C. in a humidified incubator for at least 96 hours.
Candida albicans and Aspergillus niger were also grown on Sabouraud Dextrose Agar (SABD) at 22° C. for 7 to 14 days or until full sporulation was achieved.
The following procedure was followed to determine the amount of each challenge material (inoculum broth) needed to produce a 10^8 CFU/mL challenge, which is equivalent to a final test-sample microbial concentration of 10^5 to 10^6 CFU/mL (CFU=colony forming units).
Using a sterile pipette, 1 mL of the growth from each TSB culture was transferred into tubes of 9 mL buffered water (pH 7.2 phosphate buffer) and mixed thoroughly. This was repeated to make serial 1:10 dilutions. Then, 0.1 mL of each sample and dilution was inoculated onto agar plates to produce the equivalent of a further 1:10 dilution. (C. albicans and A. niger were inoculated onto SABD and bacteria were inoculated onto Plate Count Agar (PCA), DIFCO™ available from Becton, Dickinson and Company.) (The normal volume plated for most samples was 0.1 mL. Some samples that could be very low in micro-organisms (high dilutions) were plated using 0.5 mL of inoculum, in order to produce reproducible counts.) The samples were distributed on the plates using the spread-plate technique. The spread-plate technique is carried out by spreading the sample over the entire plate surface using a sterile spreading rod while rotating the plate with a rotary auto-plater. After the inoculum was absorbed completely by the agar, each plate was inverted and incubated (fungi at 22° C.+/−2° C. and bacteria at 35° C.+/−2° C.).
After incubation for at least 48 hours, colonies that had developed on the agar plates were counted (CFU) and recorded with the corresponding dilution. If counting had to be delayed temporarily, plates were refrigerated, preferably no more than 24 hours, until they could be counted. The number of CFU/mL was determined by multiplying the plate count by the dilution factor of the plate counted.
Turbidity in Nepholemetric Turbidity Units (NTU) was measured for each serial dilution using the HF-Micro 100 Model Turbidimeter. For each microorganism, the plate counts were compared to the turbidity readings.
Aspergillus niger cultures were harvested and spores dislodged from the SABD on which they were grown by rubbing the growth gently with a sterile inoculating loop. The spores were then mixed into the broth culture that had been incubated with a sterile magnetic stir bar to reduce pellicle formation. The spore-culture mixture was filtered repeatedly through sterile, nonabsorbent cotton and harvested repeatedly, adjusting vegetative cells and spores to a level of 1.0×10^8. A hemocytometer was used to verify the final challenge concentration.
Control substrates (“broth alone”) were prepared for each microorganism separately in triplicate by adding 13.5 mL of Buffered Peptone Water broth (BPW) containing 1% dextrose to each 20-mL glass tube, then adding 1.5 mL challenge material to produce a final concentration at time zero of 10^5 to 10^6 CFU/mL and a total volume of 15 mL.

[2] = tested on: Bacillus subtilis Wild type
Outline: (§1)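 TSB + 1% dextrose cultures, 35 ± 2 °C, ≥96 h. Inoculum calibrated by NTU vs plate counts; challenge at 10^5–10^6 CFU/mL final in BPW/1% dextrose with test material. Triplicates (butoxyethanol in duplicate). Spread plates on PCA, ≥48 h, CFU/mL = count × dilution.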

[3] = tested on: Proteus vulgaris Wild type
Outline: as §1

SMILES	Grade ([1]; 0.5% (wt/vol), 3 day)	Grade ([1]; 0.5% (wt/vol), 13 day)	Grade ([1]; 0.5% (wt/vol), 30 day)	Grade ([1]; 1.25% (wt/vol), 3 day)	Grade ([1]; 1.25% (wt/vol), 13 day)	Grade ([1]; 1.25% (wt/vol), 30 day)	Grade ([1]; 2.5% (wt/vol), 3 day)	Grade ([1]; 2.5% (wt/vol), 13 day)	Grade ([1]; 2.5% (wt/vol), 30 day)	Grade ([1]; 5.0% (wt/vol), 3 day)	Grade ([1]; 5.0% (wt/vol), 13 day)	Grade ([1]; 5.0% (wt/vol), 30 day)	B. subtillis growth grade, 3 day ([2]; 0.5% weight/volume)	B. subtillis growth grade, 14 day ([2]; 0.5% weight/volume)	B. subtillis growth grade, 30 day ([2]; 0.5% weight/volume)	B. subtillis growth grade, 3 day ([2]; 1.25% weight/volume)	B. subtillis growth grade, 14 day ([2]; 1.25% weight/volume)	B. subtillis growth grade, 30 day ([2]; 1.25% weight/volume)	B. subtillis growth grade, 3 day ([2]; 2.5% weight/volume)	B. subtillis growth grade, 14 day ([2]; 2.5% weight/volume)	also measured
OCC1CCC(CO)CC1 (stereo not drawn) [1,4-CHDM, 1,4-cyclohexanedimethanol]	4	4	4	4	4	4	2 (Countable (10 to 100 colonies))	1 (Countable (1 to 10 colonies))	2.3	0	0	0	4 (1000 to 10,000 colonies countable (thus 10,000 CFU/mL to 100,000 CFU/mL))	4 (1000 to 10,000 colonies countable (thus 10,000 CFU/mL to 100,000 CFU/mL))	4 (1000 to 10,000 colonies countable (thus 10,000 CFU/mL to 100,000 CFU/mL))	4 (1000 to 10,000 colonies countable (thus 10,000 CFU/mL to 100,000 CFU/mL))	4 (1000 to 10,000 colonies countable (thus 10,000 CFU/mL to 100,000 CFU/mL))	4 (1000 to 10,000 colonies countable (thus 10,000 CFU/mL to 100,000 CFU/mL))	3 (100 to 1000 colonies (thus 1000 to 10,000 CFU/mL))	2 (52 to 100 colonies counted (thus 520 to 1000 CFU/mL))	B. subtillis growth grade, 30 day ([2]; 2.5% weight/volume): 1 (0 to 51 colonies counted (thus 10 to 510 CFU/mL based on 0.1-mL sample)); B. subtillis growth grade, 3 day ([2]; 5.0% weight/volume): 1 (0 to 51 colonies counted (thus 10 to 510 CFU/mL based on 0.1-mL sample)); B. subtillis growth grade, 14 day ([2]; 5.0% weight/volume): 0; B. subtillis growth grade, 30 day ([2]; 5.0% weight/volume): 0; P. vulgaris growth grade, 3 day ([3]; 0.5% weight/volume): 4 (1000 to 10,000 colonies countable (thus 10,000 CFU/mL to 100,000 CFU/mL)); P. vulgaris growth grade, 13 day ([3]; 0.5% weight/volume): 4 (1000 to 10,000 colonies countable (thus 10,000 CFU/mL to 100,000 CFU/mL)); P. vulgaris growth grade, 30 day ([3]; 0.5% weight/volume): 4 (1000 to 10,000 colonies countable (thus 10,000 CFU/mL to 100,000 CFU/mL)); P. vulgaris growth grade, 3 day ([3]; 1.25% weight/volume): 3 (100 to 1000 colonies (thus 1000 to 10,000 CFU/mL)); P. vulgaris growth grade, 13 day ([3]; 1.25% weight/volume): 2 (52 to 100 colonies counted (thus 520 to 1000 CFU/mL)); P. vulgaris growth grade, 30 day ([3]; 1.25% weight/volume): 0; P. vulgaris growth grade, 3 day ([3]; 2.5% weight/volume): 1 (0 to 51 colonies counted (thus 10 to 510 CFU/mL based on 0.1-mL sample)); P. vulgaris growth grade, 13 day ([3]; 2.5% weight/volume): 0; P. vulgaris growth grade, 30 day ([3]; 2.5% weight/volume): 0; P. vulgaris growth grade, 3 day ([3]; 5.0% weight/volume): 0; P. vulgaris growth grade, 13 day ([3]; 5.0% weight/volume): 0; P. vulgaris growth grade, 30 day ([3]; 5.0% weight/volume): 0
O=C([O-])CN(CCN(CC(=O)[O-])CC(=O)O)CC(=O)O.[Na+].[Na+] [EDTA, Na2EDTA]	4	4	4	2 (Countable (10 to 100 colonies))	1 (Countable (1 to 10 colonies))	3	0	0	0	0	0	0	4 (1000 to 10,000 colonies countable (thus 10,000 CFU/mL to 100,000 CFU/mL))	4 (1000 to 10,000 colonies countable (thus 10,000 CFU/mL to 100,000 CFU/mL))	4 (1000 to 10,000 colonies countable (thus 10,000 CFU/mL to 100,000 CFU/mL))	2 (52 to 100 colonies counted (thus 520 to 1000 CFU/mL))	2 (52 to 100 colonies counted (thus 520 to 1000 CFU/mL))	2 (52 to 100 colonies counted (thus 520 to 1000 CFU/mL))	0	0	B. subtillis growth grade, 30 day ([2]; 2.5% weight/volume): 0; B. subtillis growth grade, 3 day ([2]; 5.0% weight/volume): 0; B. subtillis growth grade, 14 day ([2]; 5.0% weight/volume): 0; B. subtillis growth grade, 30 day ([2]; 5.0% weight/volume): 0; P. vulgaris growth grade, 3 day ([3]; 0.5% weight/volume): 5 (More than 10,000 colonies estimated (thus more than 100,000 CFU/mL)); P. vulgaris growth grade, 13 day ([3]; 0.5% weight/volume): 4 (1000 to 10,000 colonies countable (thus 10,000 CFU/mL to 100,000 CFU/mL)); P. vulgaris growth grade, 30 day ([3]; 0.5% weight/volume): 4 (1000 to 10,000 colonies countable (thus 10,000 CFU/mL to 100,000 CFU/mL)); P. vulgaris growth grade, 3 day ([3]; 1.25% weight/volume): 3 (100 to 1000 colonies (thus 1000 to 10,000 CFU/mL)); P. vulgaris growth grade, 13 day ([3]; 1.25% weight/volume): 1 (0 to 51 colonies counted (thus 10 to 510 CFU/mL based on 0.1-mL sample)); P. vulgaris growth grade, 30 day ([3]; 1.25% weight/volume): 3 (100 to 1000 colonies (thus 1000 to 10,000 CFU/mL)); P. vulgaris growth grade, 3 day ([3]; 2.5% weight/volume): 4 (1000 to 10,000 colonies countable (thus 10,000 CFU/mL to 100,000 CFU/mL)); P. vulgaris growth grade, 13 day ([3]; 2.5% weight/volume): 4 (1000 to 10,000 colonies countable (thus 10,000 CFU/mL to 100,000 CFU/mL)); P. vulgaris growth grade, 30 day ([3]; 2.5% weight/volume): 4 (1000 to 10,000 colonies countable (thus 10,000 CFU/mL to 100,000 CFU/mL)); P. vulgaris growth grade, 3 day ([3]; 5.0% weight/volume): 4 (1000 to 10,000 colonies countable (thus 10,000 CFU/mL to 100,000 CFU/mL)); P. vulgaris growth grade, 13 day ([3]; 5.0% weight/volume): 4 (1000 to 10,000 colonies countable (thus 10,000 CFU/mL to 100,000 CFU/mL)); P. vulgaris growth grade, 30 day ([3]; 5.0% weight/volume): 4 (1000 to 10,000 colonies countable (thus 10,000 CFU/mL to 100,000 CFU/mL))
